Source: PubChem BioAssay (NCI)
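Cultured in 96-well plates, cells were exposed to test compound for 48 hours across five concentrations. TGI: concentration producing complete growth inhibition.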

Assays:
Assay in all cases: NCI anticancer screen, dose series, 48 h
[1] = tested on: SNB-75 CNS
[2] = tested on: UO-31 renal
[3] = tested on: SK-OV-3 ovarian
[4] = tested on: MCF7 breast
[5] = tested on: SF-295 CNS
[6] = tested on: DU-145 prostate
[7] = tested on: SK-MEL-5 melanoma
[8] = tested on: K-562 leukemia
[9] = tested on: HCC-2998 colon
[10] = tested on: SNB-19 CNS
[11] = tested on: SN12C renal
[12] = tested on: SF-539 CNS
[13] = tested on: TK-10 renal
[14] = tested on: OVCAR-3 ovarian
[15] = tested on: MDA-MB-435
[16] = tested on: EKVX NSCLC
[17] = tested on: 786-0 renal
[18] = tested on: RXF 393 renal
[19] = tested on: U251 CNS
[20] = tested on: HL-60(TB) leukemia
[21] = tested on: MALME-3M melanoma
[22] = tested on: SW-620 colon
[23] = tested on: COLO 205 colon
[24] = tested on: T-47D breast
[25] = tested on: A549 NSCLC
[26] = tested on: CCRF-CEM leukemia
[27] = tested on: CAKI-1 renal
[28] = tested on: NCI-H522 lung
[29] = tested on: HCT-116 colon
[30] = tested on: SK-MEL-2 melanoma
[31] = tested on: NCI/ADR-RES ovarian
[32] = tested on: KM12 colon
[33] = tested on: MDA-MB-231 breast
[34] = tested on: IGROV1 ovarian
[35] = tested on: ACHN renal
[36] = tested on: UACC-62 melanoma
[37] = tested on: OVCAR-5 ovarian
[38] = tested on: RPMI-8226 leukemia
[39] = tested on: M14 melanoma
[40] = tested on: HCT-15 colon
[41] = tested on: LOX IMVI melanoma
[42] = tested on: NCI-H226 lung
[43] = tested on: HT29 colon
[44] = tested on: PC-3 prostate
[45] = tested on: HOP-92 NSCLC
[46] = tested on: OVCAR-4 ovarian
[47] = tested on: NCI-H23 lung
[48] = tested on: SK-MEL-28 melanoma
[49] = tested on: MOLT-4 leukemia
[50] = tested on: HOP-62 NSCLC
[51] = tested on: OVCAR-8 ovarian
[52] = tested on: UACC-257 melanoma
[53] = tested on: MDA-N
[54] = tested on: A498 renal
[55] = tested on: SR leukemia
[56] = tested on: BT-549 breast
[57] = tested on: NCI-H460 lung
[58] = tested on: SF-268 CNS

Measured: TGI

CCN(CC)CCCNc1nc(=O)[nH]c(C)c1C(=O)Nc1ccc2c(c1)c1ccccc1n2CC
not listed: [54] | [55] | [56] | [57] | [58]
> 100 µM: all other assays above

Nc1nc2ccc(OCC(O)CN3CCCCC3)cc2[n+]([O-])n1 (stereo not given)
not listed: [3] | [16] | [24] | [34] | [36] | [41] | [50] | [58]
> 100 µM: all other assays above

CN(C)S(=O)(=O)n1cnc(CO)c1
not listed: [6] | [20] | [26] | [36] | [43] | [51] | [55]
> 100 µM: all other assays above

Cc1c(N/C=C(\C#N)C(=O)c2ccc(Cl)cc2)c(=O)n(-c2ccccc2)n1C
not listed: [24] | [35] | [43] | [49] | [50] | [55] | [58]
> 100 µM: all other assays above
